Results taken from patent publication US10010574B2, “Silk peptide for improving neuroprotective and neurofunctional effects and a method of its preparation” (BRAINGUARD CO., LTD., priority 2004, dated 2018).

Tested on: depression animal model
Test: Forced swimming test (depression animal model)
Type: in vivo, Sprague Dawley rats
Settings: P<0.05
Method: Four Sprague Dawley rats (140-180 g, Dae Han BioLink Co., Korea) each box were placed under constant condition (temperature: 25±1° C., relative humidity: 60±10%), and fed with unlimited water and food for 1 week. Fifty rats were selected for experiment among the rats by excluding ones that were undeveloped, show less motion or abnormal behavior in forced swimming test.
As a standard method for behavioral despair test, a forced swimming test (FST) was used in this experiment, which is known as principal test for verify anti-depression efficacy.
A rat was placed for 15 minutes in a transparent cylindrical water tank with 40 cm of height and 18 cm of diameter, which was filled with 15 cm deep water. […] The immobilization state typically refers to a state that a rat pushes only its head above the surface and was in a minimum motion for keeping itself afloat. After forced swimming test, the rat was dried at 37° C. for 30 minutes and returned to the box.
After 24 hours, the second forced swimming was performed for 5 minutes under the same condition with the first forced swimming test, and total immobilization time was measured. […] The immobilization time was measured by recording total process of the forced swimming and comparing between the control group and the experiment group. Values measured by 3 different analyzers were averaged and used as an analysis data. […]

With `CN(C)CCCN1c2ccccc2CCc2ccccc21` [imipramine] the “Average immobilization time, 7-day repeated administration” value (oral one time a day for 7 days, FIG. 23) was “significantly decreased” and the “Average immobilization time, one time urgent administration” value (silk peptide 1 g/kg oral, imipramine 20 mg/kg, 1 hour before second forced swimming, FIG. 22) was “significantly decreased”.
